Where no end group is shown, it is not given here.
Legend:
Mtb = type: cell-based, Mycobacterium tuberculosis
M. smegmatis Mc^2 155 = details: Mc^2 155, 48 h
S. aureus (MR) USA300 = details: USA300, 24 h
[1] = system: M. tuberculosis H37Rv (virulent); details: 96 h
H. influenzae TD-4 = details: TD-4, 24 h
S. aureus (MS) NRS72 = details: MS) NRS72, 24 h
[2] = target: the molecule itself; experiment: negative-stain TEM + circular dichroism

COc1c(N2C[C@@H]3CCCN[C@@H]3C2)c(F)cc2c(=O)c(C(=O)O)cn(C3CC3)c12 [moxifloxacin]
Combinatorial effect with MAD1 (FIC) (Mtb): synergizes

KRWHWWRRHWVVW-NH2 [MAD1]
MIC (M. smegmatis Mc^2 155): 5(5) µM
MIC (S. aureus (MR) USA300): >80 (20) µM
MIC [1]: 5 µM
MIC (H. influenzae TD-4): 80 (20) µM
MIC (S. aureus (MS) NRS72): >80 (20) µM

B1: myco-membrane associated disruption 1 (MAD1) peptide (peptide)
peptide: KRWHWWRRHWVVW-NH2
binding result [2]: binds

From article PMC8131206 (Nature biomedical engineering, 2021)
